According to US10028508B2, “Use of active compound compositions” (BAYER CROPSCIENCE AKTIENGESELLSCHAFT, priority 2014, dated 2018):
Where two headings read alike, the source gives them in different places.

Test system: Anopheles funestus metabolic-resistant strain FUMOZ-R
Test: Metabolic-Resistant Anopheles Test (mortality on treated tile, wood, concrete)
Type: in vivo
Details: for mortality at 12.5 mg/m2: Deltamethrin 12.5 mg/m2, read-out: Mortality Effect %; for mortality at 25 mg/m2: Deltamethrin 25 mg/m2, read-out: Mortality Effect %
Experimental: To produce a suitable preparation of active compound combination the active compounds deltamethrin and clothanidin were dissolved in acetone (for the control group only one active compound was dissolved in acetone). The active compound combination preparation (and the active compound preparations) were pipetted onto a glazed tile, wood and concrete and, after drying, adult mosquitoes of the species Anopheles funestus metabolic-resistant strain FUMOZ-R (Hunt et al., Med Vet Entomol. 2005 September; 19(3):271-5) are placed onto the treated tile, wood and concrete. The exposition time is 30 minutes.
1 hour, 2 hour, 4 hour, 24 hours after contact to the treated surface, the mortality proportion of the test animals in % is determined. Here, 100% means that all mosquitoes have been killed; 0% means that none of the mosquitoes has been killed. The treated tile, wood and concrete was stored under stress conditions (30° C./80% rh). Measurement with the treated tile, wood and concrete was repeated 5 weeks (Table 1), 11 weeks (Table 2) and 60 weeks (Table 3) after the treatment with the active compound combination.

[1] = 5 weeks after treatment, Concrete, 1 h after contact
[2] = 5 weeks after treatment, Concrete, 2 h after contact
[3] = 5 weeks after treatment, Concrete, 4 h after contact
[4] = 5 weeks after treatment, Concrete, 24 h after contact
[5] = 5 weeks after treatment, Tile, 1 h after contact
[6] = 5 weeks after treatment, Tile, 2 h after contact
[7] = 5 weeks after treatment, Tile, 4 h after contact
[8] = 5 weeks after treatment, Tile, 24 h after contact
[9] = 5 weeks after treatment, Wood, 1 h after contact
[10] = 5 weeks after treatment, Wood, 2 h after contact
[11] = 5 weeks after treatment, Wood, 4 h after contact
[12] = 5 weeks after treatment, Wood, 24 h after contact
[13] = 11 weeks after treatment, Concrete, 1 h after contact
[14] = 11 weeks after treatment, Concrete, 2 h after contact
[15] = 11 weeks after treatment, Concrete, 4 h after contact
[16] = 11 weeks after treatment, Concrete, 24 h after contact
[17] = 11 weeks after treatment, Tile, 1 h after contact
[18] = 11 weeks after treatment, Tile, 2 h after contact
[19] = 11 weeks after treatment, Tile, 4 h after contact
[20] = 11 weeks after treatment, Tile, 24 h after contact
[21] = 11 weeks after treatment, Wood, 1 h after contact
[22] = 11 weeks after treatment, Wood, 2 h after contact
[23] = 11 weeks after treatment, Wood, 4 h after contact
[24] = 11 weeks after treatment, Wood, 24 h after contact
[25] = 60 weeks after treatment, Concrete, 1 h after contact
[26] = 60 weeks after treatment, Concrete, 2 h after contact
[27] = 60 weeks after treatment, Concrete, 4 h after contact
[28] = 60 weeks after treatment, Concrete, 24 h after contact
[29] = 60 weeks after treatment, Tile, 1 h after contact
[30] = 60 weeks after treatment, Tile, 2 h after contact
[31] = 60 weeks after treatment, Tile, 4 h after contact
[32] = 60 weeks after treatment, Tile, 24 h after contact
[33] = 60 weeks after treatment, Wood, 1 h after contact
[34] = 60 weeks after treatment, Wood, 2 h after contact
[35] = 60 weeks after treatment, Wood, 4 h after contact
[36] = 60 weeks after treatment, Wood, 24 h after contact

Question: For CC1(C)[C@H](C(=O)O[C@H](C#N)c2cccc(Oc3ccccc3)c2)[C@@H]1C=C(Br)Br [Deltamethrin, deltamethrin], which mortality at 12.5 mg/m2 [1] is on record?
Answer: 70%

Question: And the mortality at 25 mg/m2 [1]?
Answer: 90%

Question: And the mortality at 12.5 mg/m2 [2]?
Answer: 87%

Question: And the mortality at 25 mg/m2 [2]?
Answer: 100%

Question: And the mortality at 12.5 mg/m2 [3]?
Answer: 100%

Question: And the mortality at 25 mg/m2 [3]?
Answer: 100%

Question: And the mortality at 12.5 mg/m2 [4]?
Answer: 30%

Question: What about the mortality at 25 mg/m2 [4] of the same compound?
Answer: 73%

Question: And the mortality at 12.5 mg/m2 [5]?
Answer: 17%

Question: What about the mortality at 25 mg/m2 [5] of the same compound?
Answer: 7%

Question: And the mortality at 12.5 mg/m2 [6]?
Answer: 77%

Question: What about the mortality at 25 mg/m2 [6] of the same compound?
Answer: 83%

Question: And the mortality at 12.5 mg/m2 [7]?
Answer: 97%

Question: And the mortality at 25 mg/m2 [7]?
Answer: 100%

Question: What about the mortality at 12.5 mg/m2 [8] of the same compound?
Answer: 100%

Question: What about the mortality at 25 mg/m2 [8] of the same compound?
Answer: 93%

Question: And the mortality at 12.5 mg/m2 [9]?
Answer: 10%

Question: And the mortality at 25 mg/m2 [9]?
Answer: 30%

Question: What about the mortality at 12.5 mg/m2 [10] of the same compound?
Answer: 77%

Question: And the mortality at 25 mg/m2 [10]?
Answer: 90%

Question: And the mortality at 12.5 mg/m2 [11]?
Answer: 80%

Question: And the mortality at 25 mg/m2 [11]?
Answer: 93%

Question: And the mortality at 12.5 mg/m2 [12]?
Answer: 77%

Question: What about the mortality at 25 mg/m2 [12] of the same compound?
Answer: 83%

Question: And the mortality at 12.5 mg/m2 [13]?
Answer: 3%

Question: And the mortality at 25 mg/m2 [13]?
Answer: 13%

Question: And the mortality at 12.5 mg/m2 [14]?
Answer: 0%

Question: What about the mortality at 25 mg/m2 [14] of the same compound?
Answer: 43%

Question: What about the mortality at 12.5 mg/m2 [15] of the same compound?
Answer: 17%

Question: And the mortality at 25 mg/m2 [15]?
Answer: 63%

Question: And the mortality at 12.5 mg/m2 [16]?
Answer: 30%

Question: What about the mortality at 25 mg/m2 [16] of the same compound?
Answer: 73%

Question: And the mortality at 12.5 mg/m2 [17]?
Answer: 0%

Question: What about the mortality at 25 mg/m2 [17] of the same compound?
Answer: 10%

Question: And the mortality at 12.5 mg/m2 [18]?
Answer: 0%

Question: What about the mortality at 25 mg/m2 [18] of the same compound?
Answer: 33%

Question: And the mortality at 12.5 mg/m2 [19]?
Answer: 0%

Question: What about the mortality at 25 mg/m2 [19] of the same compound?
Answer: 43%

Question: And the mortality at 12.5 mg/m2 [20]?
Answer: 3%

Question: What about the mortality at 25 mg/m2 [20] of the same compound?
Answer: 63%

Question: What about the mortality at 12.5 mg/m2 [21] of the same compound?
Answer: 0%

Question: What about the mortality at 25 mg/m2 [21] of the same compound?
Answer: 0%

Question: And the mortality at 12.5 mg/m2 [22]?
Answer: 0%

Question: And the mortality at 25 mg/m2 [22]?
Answer: 27%

Question: And the mortality at 12.5 mg/m2 [23]?
Answer: 20%

Question: And the mortality at 25 mg/m2 [23]?
Answer: 80%

Question: And the mortality at 12.5 mg/m2 [24]?
Answer: 13%

Question: What about the mortality at 25 mg/m2 [24] of the same compound?
Answer: 70%

Question: What about the mortality at 12.5 mg/m2 [25] of the same compound?
Answer: 0%

Question: And the mortality at 25 mg/m2 [25]?
Answer: 0%

Question: And the mortality at 12.5 mg/m2 [26]?
Answer: 0%

Question: What about the mortality at 25 mg/m2 [26] of the same compound?
Answer: 0%

Question: What about the mortality at 12.5 mg/m2 [27] of the same compound?
Answer: 0%

Question: What about the mortality at 25 mg/m2 [27] of the same compound?
Answer: 0%

Question: And the mortality at 12.5 mg/m2 [28]?
Answer: 13%

Question: What about the mortality at 25 mg/m2 [28] of the same compound?
Answer: 23%

Question: And the mortality at 12.5 mg/m2 [29]?
Answer: 0%

Question: What about the mortality at 25 mg/m2 [29] of the same compound?
Answer: 0%

Question: And the mortality at 12.5 mg/m2 [30]?
Answer: 0%

Question: What about the mortality at 25 mg/m2 [30] of the same compound?
Answer: 7%

Question: What about the mortality at 12.5 mg/m2 [31] of the same compound?
Answer: 17%

Question: What about the mortality at 25 mg/m2 [31] of the same compound?
Answer: 23%

Question: What about the mortality at 12.5 mg/m2 [32] of the same compound?
Answer: 30%

Question: What about the mortality at 25 mg/m2 [32] of the same compound?
Answer: 53%

Question: And the mortality at 12.5 mg/m2 [33]?
Answer: 0%

Question: And the mortality at 25 mg/m2 [33]?
Answer: 0%

Question: And the mortality at 12.5 mg/m2 [34]?
Answer: 0%

Question: What about the mortality at 25 mg/m2 [34] of the same compound?
Answer: 10%

Question: What about the mortality at 12.5 mg/m2 [35] of the same compound?
Answer: 17%

Question: And the mortality at 25 mg/m2 [35]?
Answer: 37%

Question: And the mortality at 12.5 mg/m2 [36]?
Answer: 43%

Question: What about the mortality at 25 mg/m2 [36] of the same compound?
Answer: 43%
